What was measured:
[1] = test system: PKB Ser473 phosphorylation in Rat1-myr-HA-p110 alpha cells; assay: Reverse protein array assay, PKB Ser473 phosphorylation in Rat1-myr-p110 alpha cells; format: cell-based; details: 0.5 h, pAkt Ser473, 30 minutes compound incubation, read-out: p-PKB IC50
Summary of the method: (§1)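 Cells: Rat1-myr-HA-p110 alpha/beta/delta, seeded ≥20 h. Lysis on ice 10 min; reverse-phase protein array, 4 lysate dilutions; fluorescence read, relative intensity.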

[2] = target: T1, PI3K beta (Homo sapiens, UniProt P42338); assay: PI3K beta kinase assay (Kinase-Glo luminescence); format: biochemical
T1 construct: for the full-length p110-b subunit are generated and fused by overlapping PCR; p85(iSH2) fusion partner (see partner chain) (N); His tag (C); made in house; host or cells: baculovirus; Tn5 (Trichoplusia ni) or TiniPro insect cells
Summary of the method: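 Full-length p110β with a Gly-linked p85 iSH2 and a C-terminal His tag (BV949, 25 nM) was incubated with 10 μg/mL phosphatidylinositol and 1 μM ATP in 10 mM Tris pH 7.5, 3 mM MgCl2, 50 mM NaCl, 0.05% CHAPS, 1 mM DTT for 60 min at room temperature. Residual ATP was read by Kinase-Glo luminescence.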

[3] = target: T2, PI3K alpha (Homo sapiens, UniProt P42336); assay: PI3K alpha kinase assay (Kinase-Glo luminescence); format: biochemical
T2 construct: p85(iSH2) fusion partner (see partner chain) (N); His tag (C); made in house; host or cells: baculovirus; Tn5 (Trichoplusia ni) or TiniPro insect cells
Summary of the method: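 Read-out: Kinase-Glo luminescence of ATP left after 60 min at room temperature. Conditions: 10 nM PI3Kα (EMV B1075), 1 μM ATP, 10 μg/mL PI substrate, Tris pH 7.5 buffer with MgCl2, NaCl, CHAPS and DTT. IC50s fitted with a four-parameter logistic model.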

[4] = target: T3, PI3K delta (Homo sapiens, UniProt O00329); assay: PI3K delta kinase assay (Kinase-Glo luminescence); format: biochemical
T3 construct: for the full-length p110-d subunit are generated and fused by overlapping PCR; p85(iSH2) fusion partner (see partner chain) (N); His tag (C); made in house; host or cells: baculovirus; Tn5 (Trichoplusia ni) or TiniPro insect cells
Summary of the method: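 Kinase-Glo luminescence read-out of ATP remaining after 60 min at RT. Enzyme: 10 nM BV1060 (p85 iSH2–p110δ fusion, His-tagged); substrate 10 μg/mL PI, ATP 1 μM final; Tris pH 7.5 buffer with MgCl2, NaCl, CHAPS, DTT. IC50 from 4-parameter logistic fit over 8 concentrations.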

[5] = test system: PKB Ser473 phosphorylation in Rat1-myr-HA-p110 beta cells; assay: Reverse protein array assay, PKB Ser473 phosphorylation in Rat1-myr-p110 beta cells; format: cell-based; details: 0.5 h, pAkt Ser473, 30 minutes incubation, read-out: p-PKB IC50
Summary of the method: as §1

T3 sequence (O00329 with tags, fused parts or gaps limits assumed): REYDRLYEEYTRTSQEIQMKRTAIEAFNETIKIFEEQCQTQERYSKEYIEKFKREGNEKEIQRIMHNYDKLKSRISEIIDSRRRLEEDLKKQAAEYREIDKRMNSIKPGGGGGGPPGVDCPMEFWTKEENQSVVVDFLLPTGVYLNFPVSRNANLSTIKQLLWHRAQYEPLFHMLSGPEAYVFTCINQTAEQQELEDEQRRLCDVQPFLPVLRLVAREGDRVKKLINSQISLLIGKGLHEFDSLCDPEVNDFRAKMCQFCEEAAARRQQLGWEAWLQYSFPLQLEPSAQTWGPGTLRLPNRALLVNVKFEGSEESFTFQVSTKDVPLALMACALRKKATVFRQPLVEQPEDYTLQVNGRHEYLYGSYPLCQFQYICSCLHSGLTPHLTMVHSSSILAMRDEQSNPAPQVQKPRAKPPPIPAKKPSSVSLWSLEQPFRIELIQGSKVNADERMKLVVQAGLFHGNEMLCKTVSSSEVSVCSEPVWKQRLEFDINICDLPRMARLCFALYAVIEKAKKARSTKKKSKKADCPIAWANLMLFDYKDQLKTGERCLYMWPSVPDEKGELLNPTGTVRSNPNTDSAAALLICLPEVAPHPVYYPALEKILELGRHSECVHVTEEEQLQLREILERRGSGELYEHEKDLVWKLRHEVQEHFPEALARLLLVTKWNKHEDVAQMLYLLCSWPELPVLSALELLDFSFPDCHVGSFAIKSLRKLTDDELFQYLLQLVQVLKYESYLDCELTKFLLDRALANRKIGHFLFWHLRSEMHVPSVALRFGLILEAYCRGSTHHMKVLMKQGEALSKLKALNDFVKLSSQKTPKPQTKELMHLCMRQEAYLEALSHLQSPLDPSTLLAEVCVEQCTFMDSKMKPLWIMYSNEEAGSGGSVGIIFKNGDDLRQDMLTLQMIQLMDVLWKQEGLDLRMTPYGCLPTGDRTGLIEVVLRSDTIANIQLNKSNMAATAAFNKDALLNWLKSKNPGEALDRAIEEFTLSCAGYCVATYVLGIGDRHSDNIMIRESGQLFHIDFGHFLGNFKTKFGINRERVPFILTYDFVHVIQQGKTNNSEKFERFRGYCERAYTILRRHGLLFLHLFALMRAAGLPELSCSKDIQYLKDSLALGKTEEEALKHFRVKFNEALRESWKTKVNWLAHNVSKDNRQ
T1 sequence (P42338 with tags, fused parts or gaps limits assumed): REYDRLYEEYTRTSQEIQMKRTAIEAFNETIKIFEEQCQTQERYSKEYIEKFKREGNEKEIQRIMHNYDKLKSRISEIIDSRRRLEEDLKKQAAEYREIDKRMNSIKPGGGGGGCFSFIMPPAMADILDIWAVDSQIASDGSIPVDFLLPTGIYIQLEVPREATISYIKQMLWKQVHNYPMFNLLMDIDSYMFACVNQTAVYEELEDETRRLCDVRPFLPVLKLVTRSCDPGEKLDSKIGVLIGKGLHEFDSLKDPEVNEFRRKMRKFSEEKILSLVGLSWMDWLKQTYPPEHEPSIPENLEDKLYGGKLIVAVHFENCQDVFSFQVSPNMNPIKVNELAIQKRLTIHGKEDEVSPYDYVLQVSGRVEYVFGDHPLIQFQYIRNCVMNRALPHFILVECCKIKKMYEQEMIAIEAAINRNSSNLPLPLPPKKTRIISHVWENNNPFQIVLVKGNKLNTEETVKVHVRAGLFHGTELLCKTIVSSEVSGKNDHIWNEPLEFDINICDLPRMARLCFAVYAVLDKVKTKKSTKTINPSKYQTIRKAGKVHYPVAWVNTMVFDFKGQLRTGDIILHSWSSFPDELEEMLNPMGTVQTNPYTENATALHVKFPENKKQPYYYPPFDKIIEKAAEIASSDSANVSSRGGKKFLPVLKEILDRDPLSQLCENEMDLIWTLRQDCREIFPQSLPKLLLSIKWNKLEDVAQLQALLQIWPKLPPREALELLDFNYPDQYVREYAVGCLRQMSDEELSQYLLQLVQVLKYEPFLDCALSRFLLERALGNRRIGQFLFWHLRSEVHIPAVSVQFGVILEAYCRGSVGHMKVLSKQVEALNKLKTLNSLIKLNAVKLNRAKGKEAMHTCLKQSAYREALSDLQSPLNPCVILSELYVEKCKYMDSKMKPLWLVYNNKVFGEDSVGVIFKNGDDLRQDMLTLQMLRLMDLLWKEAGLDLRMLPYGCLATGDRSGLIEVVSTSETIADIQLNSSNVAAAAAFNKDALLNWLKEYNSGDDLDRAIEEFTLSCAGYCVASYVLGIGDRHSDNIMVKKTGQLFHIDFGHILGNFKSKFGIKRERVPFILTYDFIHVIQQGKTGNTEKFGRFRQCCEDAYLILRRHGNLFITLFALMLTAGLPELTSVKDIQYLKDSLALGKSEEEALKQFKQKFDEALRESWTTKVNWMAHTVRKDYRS
T2 sequence (P42336 with tags, fused parts or gaps limits assumed): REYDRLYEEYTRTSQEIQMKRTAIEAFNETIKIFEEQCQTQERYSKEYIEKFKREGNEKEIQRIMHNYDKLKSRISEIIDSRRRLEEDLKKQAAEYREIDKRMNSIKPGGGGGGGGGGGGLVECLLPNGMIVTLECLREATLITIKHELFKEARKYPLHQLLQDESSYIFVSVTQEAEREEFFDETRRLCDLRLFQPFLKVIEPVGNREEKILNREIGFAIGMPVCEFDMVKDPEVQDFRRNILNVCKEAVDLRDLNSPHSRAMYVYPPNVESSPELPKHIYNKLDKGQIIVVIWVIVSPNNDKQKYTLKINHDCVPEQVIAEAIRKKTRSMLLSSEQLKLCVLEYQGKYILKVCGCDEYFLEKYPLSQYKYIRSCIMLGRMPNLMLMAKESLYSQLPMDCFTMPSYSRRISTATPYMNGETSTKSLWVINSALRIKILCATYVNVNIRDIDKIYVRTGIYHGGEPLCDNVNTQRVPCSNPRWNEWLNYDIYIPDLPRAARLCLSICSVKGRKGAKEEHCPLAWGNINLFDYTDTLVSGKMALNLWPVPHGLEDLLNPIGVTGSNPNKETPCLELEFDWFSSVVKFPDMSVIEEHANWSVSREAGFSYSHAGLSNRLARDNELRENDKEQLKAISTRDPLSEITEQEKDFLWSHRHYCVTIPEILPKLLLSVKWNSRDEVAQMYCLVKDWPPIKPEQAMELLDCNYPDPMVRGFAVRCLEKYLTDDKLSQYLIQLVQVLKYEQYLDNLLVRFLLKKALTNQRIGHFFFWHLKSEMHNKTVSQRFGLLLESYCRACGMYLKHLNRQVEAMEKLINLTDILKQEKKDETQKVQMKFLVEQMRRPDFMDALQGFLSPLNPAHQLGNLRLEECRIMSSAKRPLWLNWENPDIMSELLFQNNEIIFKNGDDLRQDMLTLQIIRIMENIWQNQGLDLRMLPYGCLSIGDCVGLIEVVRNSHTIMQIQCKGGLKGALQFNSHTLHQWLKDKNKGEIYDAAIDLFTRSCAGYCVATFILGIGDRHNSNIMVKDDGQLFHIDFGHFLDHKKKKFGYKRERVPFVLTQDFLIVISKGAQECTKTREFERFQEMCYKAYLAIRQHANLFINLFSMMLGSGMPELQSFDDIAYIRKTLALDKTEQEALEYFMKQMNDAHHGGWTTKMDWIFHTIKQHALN

SMILES	IC50 [1]	IC50 [2]	IC50 [3]	IC50 [4]	IC50 [5]
Cc1nn(C)cc1-n1c(=O)n(C)c2cnc3ccc(-c4cncc(C(C)O)c4)cc3c21 (racemic) [Example 217, (rac)-1-(1,3-Dimethyl-1H-pyrazol-4-yl)-8-[5-(1-hydroxy-ethyl)-pyridin-3-yl]-3-methyl-1,3-dihydro-imidazo[4,5-c]quinolin-2-one]	108 nM	13 nM	8 nM	19 nM	161 nM
COc1ccc(-c2ccc3ncc4c(c3c2)n(-c2c(C)nn(C)c2C)c(=O)n4C)cc1OC [Example 1.9, 8-(3,4-Dimethoxy-phenyl)-3-methyl-1-(1,3,5-trimethyl-1H-pyrazol-4-yl)-1,3-dihydro-imidazo[4,5-c]quinolin-2-one]	26 nM	39 nM	28 nM	18 nM	113 nM
COc1ccc(-c2ccc3ncc4c(c3c2)n(-c2ccnn2C)c(=O)n4C)cn1 [Example 2.2, 8-(6-Methoxy-pyridin-3-yl)-3-methyl-1-(2-methyl-2H-pyrazol-3-yl)-1,3-dihydro-imidazo[4,5-c]quinolin-2-one]	159 nM	278 nM	62 nM	56 nM	553 nM
COc1ccc(-c2ccc3ncc4c(c3c2)n(-c2cnn(C)c2C)c(=O)n4C)cn1 [Example 2.9, 1-(1,5-Dimethyl-1H-pyrazol-4-yl)-8-(6-methoxy-pyridin-3-yl)-3-methyl-1,3-dihydro-imidazo[4,5-c]quinolin-2-one]	44 nM	166 nM	43 nM	54 nM	141 nM
CCOc1ccc(-c2ccc3ncc4c(c3c2)n(-c2cn(C)nc2Cl)c(=O)n4C)cn1 [Example 3.8, 1-(3-Chloro-1-methyl-1H-pyrazol-4-yl)-8-(6-ethoxy-pyridin-3-yl)-3-methyl-1,3-dihydro-imidazo[4,5-c]quinolin-2-one]	15 nM	123 nM	16 nM	34 nM	23 nM
Cc1c(-n2c(=O)n(C)c3cnc4ccc(-c5ccc(N(C)C)nc5)cc4c32)cnn1C [Example 4.4, 8-(6-Dimethylamino-pyridin-3-yl)-1-(1,5-dimethyl-1H-pyrazol-4-yl)-3-methyl-1,3-dihydro-imidazo[4,5-c]quinolin-2-one]	53 nM	733 nM	45 nM	89 nM	110 nM
Cc1nn(C(C)C)cc1-n1c(=O)n(C)c2cnc3ccc(-c4cnc(N(C)C)nc4)cc3c21 [Example 6.1, 8-(2-Dimethylamino-pyrimidin-5-yl)-1-(1-isopropyl-3-methyl-1H-pyrazol-4-yl)-3-methyl-1,3-dihydro-imidazo[4,5-c]quinolin-2-one]	61 nM	227 nM	29 nM	28 nM	43 nM
Cc1nn(C)cc1-n1c(=O)n(C)c2cnc3ccc(-c4cccnc4)cc3c21 [Example 10.2, 1-(1,3-Dimethyl-1H-pyrazol-4-yl)-3-methyl-8-pyridin-3-yl-1,3-dihydro-imidazo[4,5-c]quinolin-2-one]	50 nM	86 nM	16 nM	112 nM	58 nM
CCn1cc(-n2c(=O)n(C)c3cnc4ccc(-c5ccc(CO)nc5)cc4c32)c(C)n1 [Example 16.1, 1-(1-ethyl-3-methyl-1H-pyrazol-4-yl)-8-(6-hydroxymethyl-pyridin-3-yl)-3-methyl-1,3-dihydro-imidazo[4,5-c]quinolin-2-one]	74 nM	228 nM	33 nM	25 nM	34 nM
Cc1nn(C)cc1-n1c(=O)n(C)c2cnc3ccc(-c4cncc(S(C)(=O)=O)c4)cc3c21 [Example 22, 1-(1,3-Dimethyl-1H-pyrazol-4-yl)-8-(5-methanesulfonyl-pyridin-3-yl)-3-methyl-1,3-dihydro-imidazo[4,5-c]quinolin-2-one]	168 nM	11 nM	6 nM	9 nM	148 nM
Cc1nn(CC(=O)N(C)C)c(C)c1-n1c(=O)n(C)c2cnc3ccc(-c4cnc(N)c(C(F)(F)F)c4)cc3c21 [Example 25.2, 2-{4-[8-(6-Amino-5-trifluoromethyl-pyridin-3-yl)-3-methyl-2-oxo-2,3-dihydro-imidazo[4,5-c]quinolin-1-yl]-3,5-dimethyl-pyrazol-1-yl}-N,N-dimethyl-acetamide]	90 nM	578 nM	13 nM	32 nM	
Cc1nn(C)cc1-n1c(=O)n(C)c2cnc3ccc(-c4ccc(OCC5CC5)nc4)cc3c21 [Example 42, 8-(6-Cyclopropylmethoxy-pyridin-3-yl)-1-(1,3-dimethyl-1H-pyrazol-4-yl)-3-methyl-1,3-dihydro-imidazo[4,5-c]quinolin-2-one]	36 nM		70 nM	441 nM	66 nM
Cc1nn(C)cc1-n1c(=O)n(C)c2cnc3ccc(-c4ccc5c(c4)CCN5C)cc3c21 [Example 50, 1-(1,3-Dimethyl-1H-pyrazol-4-yl)-3-methyl-8-(1-methyl-2,3-dihydro-1H-indol-5-yl)-1,3-dihydro-imidazo[4,5-c]quinolin-2-one]	72 nM		188 nM	371 nM	119 nM
Cc1nn(CC(=O)N(C)C)c(C)c1-n1c(=O)n(C)c2cnc3ccc(-c4ccc(-n5cccn5)cc4)cc3c21 [Example 51.4, 2-{3,5-Dimethyl-4-[3-methyl-2-oxo-8-(4-pyrazol-1-yl-phenyl)-2,3-dihydro-imidazo[4,5-c]quinolin-1-yl]pyrazol-1-yl}-N,N-dimethyl-acetamide]	14 nM		22 nM	598 nM	
Cc1nn(C)cc1-n1c(=O)n(C)c2cnc3ccc(-c4cccc(OC(C)C)c4F)cc3c21 [Example 83, 1-(1,3-Dimethyl-1H-pyrazol-4-yl)-8-(2-fluoro-3-isopropoxy-phenyl)-3-methyl-1,3-dihydro-imidazo[4,5-c]quinolin-2-one]	197 nM		74 nM	234 nM	353 nM
CCn1cc(-n2c(=O)n(C)c3cnc4ccc(-c5ccc(COC)nc5)cc4c32)c(C)n1 [Example 104, 1-(1-Ethyl-3-methyl-1H-pyrazol-4-yl)-8-(6-methoxymethyl-pyridin-3-yl)-3-methyl-1,3-dihydro-imidazo[4,5-c]quinolin-2-one]	71 nM		79 nM	141 nM	37 nM
CCOc1ccc(-c2ccc3ncc4c(c3c2)n(-c2cn(CCOC)nc2C)c(=O)n4C)cn1 [Example 131, 8-(6-Ethoxy-pyridin-3-yl)-1-[1-(2-methoxy-ethyl)-3-methyl-1H-pyrazol-4-yl]-3-methyl-1,3-dihydro-imidazo[4,5-c]quinolin-2-one]	41 nM		161 nM	271 nM	29 nM
Cc1cc(-n2c(=O)n(C)c3cnc4ccc(-c5cncc(N6CCOCC6)c5)cc4c32)n(C)n1 [Example 175.2, 1-(2,5-Dimethyl-2H-pyrazol-3-yl)-3-methyl-8-(5-morpholin-4-yl-pyridin-3-yl)-1,3-dihydro-imidazo[4,5-c]quinolin-2-one]	59 nM		199 nM	235 nM	161 nM
COCCNC(=O)c1cc(-c2ccc3ncc4c(c3c2)n(-c2cn(C)nc2C)c(=O)n4C)cnc1N [Example 226, 2-Amino-5-[1-(1,3-dimethyl-1H-pyrazol-4-yl)-3-methyl-2-oxo-2,3-dihydro-1H-imidazo[4,5-c]quinolin-8-yl]-N-(2-methoxy-ethyl)-nicotinamide]		71 nM	33 nM	21 nM	457 nM
CCN(CC)C(=O)Cn1cc(-n2c(=O)n(C)c3cnc4ccc(-c5cnc(N6CCCC6)nc5)cc4c32)c(C)n1 [Example 247.1, N,N-Diethyl-2-{3-methyl-4-[3-methyl-2-oxo-8-(2-pyrrolidin-1-yl-pyrimidin-5-yl)-2,3-dihydro-imidazo[4,5-c]quinolin-1-yl]-pyrazol-1-yl}-acetamide]	28 nM		93 nM	777 nM	52 nM
